Read-outs that look alike come from different tables or passages of the source.

Consider two compounds from paper PMC7707092, “Discovery and characterization of ORM‐11372, a novel inhibitor of the sodium‐calcium exchanger with positive inotropic activity” (British Journal of Pharmacology, 2020).

One data set deals with NCX. Further details: method as in Jost et al., 2013; Kohajda et al., 2016. The conditions noted are these: Dog, reference not given, ref Jost et al., 2013, Kohajda et al., 2016, cited from earlier work.
In data set [1] the target is hERG KV11.1 current (I hERG) (Homo sapiens, UniProt Q12809). Nature of the data set: KV11.1 channel current (I hERG), manual patch‐clamp, CHO cells. It is filed as cell-based. The protocol: CHO cells stably expressing either hERG1a (KV11.1) channels (KCNH2; RRID:CVCL_H512) or human 5‐HT2B receptors were cultured at 37°C in a 5% CO2/95% air atmosphere in the Ham's Nutrient Mixture F‐12 (HAM F‐12) medium supplemented with 10% FBS (heat inactivated), 100 μg·ml^−1 of hygromycin B (Invitrogen), and 100 μg·ml^−1 of geneticin or 100 IU·ml^−1 of penicillin and 100 IU·ml^−1 of streptomycin, 25‐mM HEPES, 500 μg·ml^−1 of geneticin, and 250 μg·ml^−1 of Zeocin®. Adhered cells were detached using either Detachin® solution or trypsin and replated twice a week. HEK 293 (RRID:CVCL_0045) and IMR‐32 cells (CCL‐127; RRID:CVCL_0346) were cultured similarly but maintained instead in DMEM, supplemented with 10% FBS (heat inactivated), 100 IU·ml^−1 of penicillin and 100 IU·ml^−1 of streptomycin, and 25‐mM HEPES, and in the case of the IMR‐32 cell line, with minimum essential medium (MEM) non‐essential amino acids. IMR‐32 cells are derived from a human neuroblastoma and endogenously express L‐type (CaV1.x) calcium channel (Sher, Gotti, Pandiella, Madeddu, & Clementi, 1988). […]
hERG KV11.1 current (I hERG), sequence (Q12809 whole entry): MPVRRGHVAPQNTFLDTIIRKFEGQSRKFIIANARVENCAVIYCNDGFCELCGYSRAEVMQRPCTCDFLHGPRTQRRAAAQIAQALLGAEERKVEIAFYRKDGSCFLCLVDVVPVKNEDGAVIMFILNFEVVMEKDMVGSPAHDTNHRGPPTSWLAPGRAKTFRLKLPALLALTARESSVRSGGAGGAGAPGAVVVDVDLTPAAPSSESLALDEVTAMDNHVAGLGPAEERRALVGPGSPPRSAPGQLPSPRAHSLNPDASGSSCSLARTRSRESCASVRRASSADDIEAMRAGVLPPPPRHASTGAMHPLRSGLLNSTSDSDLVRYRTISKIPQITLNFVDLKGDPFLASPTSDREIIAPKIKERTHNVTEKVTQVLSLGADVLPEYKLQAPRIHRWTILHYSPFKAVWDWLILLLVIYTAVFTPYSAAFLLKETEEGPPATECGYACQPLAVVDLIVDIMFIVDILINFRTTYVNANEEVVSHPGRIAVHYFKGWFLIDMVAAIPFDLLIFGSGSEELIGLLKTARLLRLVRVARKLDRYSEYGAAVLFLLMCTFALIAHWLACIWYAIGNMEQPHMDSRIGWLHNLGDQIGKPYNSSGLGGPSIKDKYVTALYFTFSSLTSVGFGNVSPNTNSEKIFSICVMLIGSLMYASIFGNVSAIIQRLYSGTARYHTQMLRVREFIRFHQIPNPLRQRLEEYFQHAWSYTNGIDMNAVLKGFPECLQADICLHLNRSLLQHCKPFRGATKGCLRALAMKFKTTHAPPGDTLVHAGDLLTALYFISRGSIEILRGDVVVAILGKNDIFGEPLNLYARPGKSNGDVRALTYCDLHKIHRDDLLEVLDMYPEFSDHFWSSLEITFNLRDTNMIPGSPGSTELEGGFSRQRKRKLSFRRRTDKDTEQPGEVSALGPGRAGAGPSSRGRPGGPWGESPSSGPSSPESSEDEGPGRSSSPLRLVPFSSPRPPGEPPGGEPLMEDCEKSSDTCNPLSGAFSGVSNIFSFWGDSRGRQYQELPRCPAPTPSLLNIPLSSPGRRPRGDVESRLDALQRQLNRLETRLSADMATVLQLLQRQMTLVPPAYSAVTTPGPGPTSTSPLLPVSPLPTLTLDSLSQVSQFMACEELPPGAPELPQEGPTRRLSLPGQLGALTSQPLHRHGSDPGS

Values from hERG‐expressing cells (n = 4) were recorded with the standard extracellular solution at the physiological temperature and a pipette solution containing (in mM) 130 KCl, 7 NaCl, 5 EGTA, 1 MgCl2, 5 Na2ATP, and 5 HEPES (pH was set to 7.2 with KOH; osmolarity was adjusted to 290 ± 3 mOsm). […]

A further data set deals with healthy rabbits. Nature of the data set: Haemodynamics in anaesthetized rabbits. It is filed as in vivo, rabbit. Details: cardiac relaxation / HR / systolic BP: dose or concentration left out as unconfirmed. On the procedure: All animals were given multiple ascending infusion doses of ORM‐11372; blinding was not possible. Systemic BP (SP) and left ventricular pressure (LVP) values were measured with pressure transducers (SP for femoral artery: Isotec, Hugo Sachs Elektronic, Germany; a miniature pressure transducer Mikro‐Tip transducer SPR‐249, Millar Instruments was inserted into the left ventricle via the right carotid artery). The signal was amplified (DC‐bridge amplifier type 660, Hugo Sachs Elektronik, Germany), digitized (I/O connector block type SCB‐68, National Instruments, USA), recorded, and analysed (IHME 1.0.9, Fision Ltd, Finland). Left ventricular inotropic effect (LV + dP/dt max), relaxation (LV − dP/dt min), and HR values were analysed from LVP signals.
Male New Zealand white rabbits (Harlan, Netherlands B.V.) were housed individually in polycarbonate cages (Scanbur Number 8 plastic cages with stainless steel door) with aspen bedding (Aspen Bricks M, Tapvei Ky, Kaavi, Finland). The acclimation period before experiments was at least 21 days. Rabbits weighing 2.0–2.3 kg (age 10–12 weeks) were used for haemodynamically assessing ORM‐11372 (no randomization, baseline values as own control). The diet provided to rabbits was SDS Stanrab (P) SQC pelleted (Special Diet Services Ltd, Witham, England). Water was provided ad libitum in polycarbonate bottles (750 ml).
Rabbits (n = 5) were sedated with i.v. (marginal vein) diazepam (2 mg·kg^−1, Diapam®, Orion Pharma). Anaesthesia was induced with i.v. S‐ketamine (10–20 mg·kg^−1 Ketanest‐S®, Pfizer) and maintained with S‐ketamine i.v. infusion (15–80 mg·kg^−1·h^−1). Animals were placed on a heating table (+38°C), and tracheas were cannulated. Rabbits were ventilated via a rodent ventilator (Ugo Basile 7025, Hugo Sachs Elektronik, Germany; respiratory volume 10 ml·kg^−1, 30 strokes·min^−1 for rabbits). […]

Data set [2] has as its system human ventricular trabeculae.

Turning to `O=C(CN1CCC(O)CC1)Nc1ccc(Oc2ccc3c(c2)CCC(c2ccccc2)O3)nc1` (stereo not shown) [ORM-10962], the figures for the 50% inhibitory concentration (IC50) with NCX (read-out: IC50 NCX forward) and with NCX (read-out: IC50 NCX reverse) were 0.067 µM and 0.055 µM, respectively.

With `Nc1cccc(-c2ccc(CNc3ccc(F)cc3)o2)c1` [ORM‐11372], the “safety margin (ratio), I NCX over Kv11.1 current” value in data set [1] is listed as ≥ 2,000. The compound further returned an IC50 in data set [1] (manual patch‐clamp, physiological temperature) of 10 µM. Besides, in the data set with healthy rabbits, the HR result was “did not have any effects”, the cardiac relaxation entry is “did not have any effects” and the “systolic BP” value is recorded as “did not have any effects”. Also, the “increase in cardiac contractility (LV + dP/dt max)” value in the data set with healthy rabbits (infusion 833 μg·kg^−1·min^−1) was determined as 35 ± 8%. Moreover, in data set [2] (1 or 2 Hz, ORM‐11372 any tested concentration, dofetilide 0.1 μM (positive control)), the “STV and triangulation (pro‐arrhythmia markers)” value is “no effects”. The “APD30, APD50 and APD90” value in data set [2] (up to 10 μM, 1‐ and 2‐Hz pacing) is reported as “no significant changes”.
